Molecules are shown by their SMILES. Counter-ions that a name gives are not always drawn.

In the first assay the target is T1, HIF-PH2 (EGLN1) (Homo sapiens, UniProt Q9GZT9).
T1 construct: made in house; host or cells: insect Hi5 cells
T1 sequence (Q9GZT9 whole entry): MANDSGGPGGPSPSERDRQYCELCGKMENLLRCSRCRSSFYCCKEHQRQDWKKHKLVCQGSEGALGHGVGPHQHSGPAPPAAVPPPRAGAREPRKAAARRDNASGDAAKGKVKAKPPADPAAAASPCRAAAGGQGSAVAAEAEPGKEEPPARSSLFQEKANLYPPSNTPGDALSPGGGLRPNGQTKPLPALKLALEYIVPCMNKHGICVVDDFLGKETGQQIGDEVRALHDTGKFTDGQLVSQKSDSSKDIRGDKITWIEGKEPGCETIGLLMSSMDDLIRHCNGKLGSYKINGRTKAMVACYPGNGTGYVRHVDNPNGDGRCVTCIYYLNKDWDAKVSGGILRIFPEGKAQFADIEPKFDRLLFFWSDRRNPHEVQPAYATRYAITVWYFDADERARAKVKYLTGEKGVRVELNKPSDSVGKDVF
Nature of the assay: HIF-PH assay (14CO2 capture, peptide-dependent turnover). It counts as biochemical. Conditions: compound concentration 12.5 μM. From the text: Ketoglutaric acid α-[1-^14C]-sodium salt, alpha-ketoglutaric acid sodium salt, and HPLC purified peptide may be obtained from commercial sources, e.g., Perkin-Elmer (Wellesley Mass.), Sigma-Aldrich, and SynPep Corp. (Dublin Calif.), respectively. Peptides for use in the assay may be fragments of HIFα as described above or as disclosed in International Publication WO 2005/118836, incorporated by reference herein. For example, a HIF peptide for use in the HIF-PH assay is [methoxycoumarin]-DLDLEALAPYIPADDDFQL-amide (SEQ ID NO:2). HIF-PH, e.g., HIF-PH2 (EGLN1), can be expressed in, e.g., insect Hi5 cells, and partially purified, e.g., through a SP ion exchange chromatography column. Enzyme activity is determined by capturing ^14CO2 using an assay described by Kivirikko and Myllyla (1982, Methods Enzymol. 82:245-304). Assay reactions contain 50 mM HEPES (pH 7.4), 100 μM α-ketoglutaric acid sodium salt, 0.30 μCi/mL ketoglutaric acid α-[1-^14C]-sodium salt, 40 μM FeSO4, 1 mM ascorbate, 1541.8 units/mL Catalase, with or without 50 μM peptide substrate and various concentrations of compound of the invention. Reactions are initiated by addition of HIF-PH enzyme.
The peptide-dependent percent turnover is calculated by subtracting percent turnover in the absence of peptide from percent turnover in the presence of substrate peptide. Percent inhibition and IC50 are calculated using peptide-dependent percent turnover at given inhibitor concentrations. Calculation of IC50 values for each inhibitor is conducted using GraFit software (Erithacus Software Ltd., Surrey UK).
Representative compounds of the invention were analyzed using the HIF-PH assay described above. Table 1 presents enzyme inhibition data for exemplary compounds against HIF-PH2, a representative HIF prolyl hydroxylase. By inhibiting HIF prolyl hydroxylase, compounds of the invention stabilize HIFα, which then combines with HIFβ to form an active transcription factor that increases expression of various genes involved in numerous beneficial cellular processes.
Consider `O=C(O)CNC(=O)c1c(O)c2ccc(Br)cc2sc1=O` [Example 5, [(7-bromo-4-hydroxy-2-oxo-2H-thiochromene-3-carbonyl)-amino]-acetic acid], for which the inhibition at 12.5 µM came out at 97.6%.
For the compound `Cc1ccc2c(O)c(C(=O)NCC(=O)O)c(=O)sc2c1` [Example 6, [(4-Hydroxy-7-methyl-2-oxo-2H-thiochromene-3-carbonyl)-amino]-acetic acid], the inhibition at 12.5 µM was determined as 94.5%.
`COc1ccc(-c2ccc3c(O)c(C(=O)NCC(=O)O)c(=O)sc3c2)cc1` [Example 7, {[4-Hydroxy-7-(4-methoxy-phenyl)-2-oxo-2H-thiochromene-3-carbonyl]-amino}-acetic acid] gave an inhibition at 12.5 µM of 98.7%.
On the same count and under the same terms, next, `O=C(O)CNC(=O)c1c(O)c2ccc(F)cc2sc1=O` [Example 21, [(7-Fluoro-4-hydroxy-2-oxo-2H-thiochromene-3-carbonyl)-amino]-acetic acid]: 91.1%; `CCCCOc1ccc2c(O)c(C(=O)NCC(=O)O)c(=O)sc2c1` [Example 26, [(7-Butoxy-4-hydroxy-2-oxo-2H-thiochromene-3-carbonyl)-amino]-acetic acid]: 96.2%.

Staying with this assay, now noted: compound concentration 50 μM.
As to `COc1ccc2c(O)c(C(=O)NCC(=O)O)c(=O)sc2c1` [Example 1, [(4-Hydroxy-7-methoxy-2-oxo-2H-thiochromene-3-carbonyl)-amino]-acetic acid], 50 µM produced 97.3% inhibition.
The same measure, in the same setting: next, `COc1cccc(-c2ccc3c(O)c(C(=O)NCC(=O)O)c(=O)sc3c2)c1` [Example 8, {[4-Hydroxy-7-(3-methoxy-phenyl)-2-oxo-2H-thiochromene-3-carbonyl]-amino}-acetic acid]: 97.5%; `COc1ccccc1-c1ccc2c(O)c(C(=O)NCC(=O)O)c(=O)sc2c1` [Example 9, {[4-Hydroxy-7-(2-methoxy-phenyl)-2-oxo-2H-thiochromene-3-carbonyl]-amino}-acetic acid]: 97.2%.
The compound `O=C(O)CNC(=O)c1c(O)c2ccc(-c3cc(Cl)cc(Cl)c3)cc2sc1=O` [Example 10, {[7-(3,5-Dichloro-phenyl)-4-hydroxy-2-oxo-2H-thiochromene-3-carbonyl]-amino}-acetic acid] gave an inhibition at 50 µM of 96.7%.
The same measure, in the same setting: next, `O=C(O)CNC(=O)c1c(O)c2ccc(-c3ccc(C(F)(F)F)cc3)cc2sc1=O` [Example 11, {[4-Hydroxy-2-oxo-7-(4-trifluoromethyl-phenyl)-2H-thiochromene-3-carbonyl]-amino}-acetic acid]: 95.8%.
With `O=C(O)CNC(=O)c1c(O)c2ccc(-c3ccccc3)cc2sc1=O` [Example 12, [(4-Hydroxy-2-oxo-7-phenyl-2H-thiochromene-3-carbonyl)-amino]-acetic acid], the inhibition at 50 µM is 96.8%.
Same read-out and setting: next, `O=C(O)CNC(=O)c1c(O)c2ccc(-c3ccc(F)cc3)cc2sc1=O` [Example 13, {[7-(4-Fluoro-phenyl)-4-hydroxy-2-oxo-2H-thiochromene-3-carbonyl]-amino}-acetic acid]: 99.7%.
`O=C(O)CNC(=O)c1c(O)c2ccc(-c3cncnc3)cc2sc1=O` [Example 14, [(4-Hydroxy-2-oxo-7-pyrimidin-5-yl-2H-thiochromene-3-carbonyl)-amino]-acetic acid] showed an inhibition at 50 µM of 99.5%.
`O=C(O)CNC(=O)c1c(O)c2ccc(-c3cccnc3)cc2sc1=O` [Example 15, [(4-Hydroxy-2-oxo-7-pyridin-3-yl-2H-thiochromene-3-carbonyl)-amino]-acetic acid, sodium salt] returned an inhibition at 50 µM of 95.2%.
Regarding `O=C(O)CNC(=O)c1c(O)c2ccc(-c3cncc(F)c3)cc2sc1=O` [Example 16, {[7-(5-Fluoro-pyridin-3-yl)-4-hydroxy-2-oxo-2H-thiochromene-3-carbonyl]-amino}-acetic acid], at 50 µM the inhibition was 95.4%.
Consider `O=C(O)CNC(=O)c1c(O)c2ccc(-c3ccc(F)c(Cl)c3)cc2sc1=O` [Example 17, {[7-(3-Chloro-4-fluoro-phenyl)-4-hydroxy-2-oxo-2H-thiochromene-3-carbonyl]-amino}-acetic acid], for which the inhibition at 50 µM was determined as 92.8%.
`O=C(O)CNC(=O)c1c(O)c2ccc(-c3ccc4ccccc4c3)cc2sc1=O` [Example 18, [(4-Hydroxy-7-naphthalen-2-yl-2-oxo-2H-thiochromene-3-carbonyl)-amino]-acetic acid] showed an inhibition at 50 µM of 87.9%.
Take `Cc1ccc(-c2ccc3c(O)c(C(=O)NCC(=O)O)c(=O)sc3c2)cc1` [Example 19, [(4-Hydroxy-2-oxo-7-p-tolyl-2H-thiochromene-3-carbonyl)-amino]-acetic acid]: the inhibition at 50 µM amounted to 92.1%.
Consider `Cc1cc(Cl)cc2c(O)c(C(=O)NCC(=O)O)c(=O)sc12` [Example 22, [(6-Chloro-4-hydroxy-8-methyl-2-oxo-2H-thiochromene-3-carbonyl)-amino]-acetic acid], for which at 50 µM the inhibition was 95.6%.
In the case of `Cc1cccc2c(O)c(C(=O)NCC(=O)O)c(=O)sc12` [Example 23, [(4-Hydroxy-8-methyl-2-oxo-2H-thiochromene-3-carbonyl)-amino]-acetic acid], the inhibition at 50 µM is 97.5%.

The same assay, now with this note: compound concentration 67 μM.
With `O=C(O)CNC(=O)c1c(O)c2cc(Br)ccc2sc1=O` [Example 27, [(6-Bromo-4-hydroxy-2-oxo-2H-thiochromene-3-carbonyl)-amino]-acetic acid], 67 µM produced 100% inhibition.
In the case of `C[C@H](NC(=O)c1c(O)c2cc(Br)ccc2sc1=O)C(=O)O` [Example 28, 2-(S)-[(6-Bromo-4-hydroxy-2-oxo-2H-thiochromene-3-carbonyl)-amino]-propionic acid], 67 µM produced 98% inhibition.
The same measure, in the same setting: the same measure for `O=C(O)CNC(=O)c1c(O)c2ccc(-c3cc(C(F)(F)F)cc(C(F)(F)F)c3)cc2sc1=O` [Example 29, {[7-(3,5-Bis-trifluoromethyl-phenyl)-4-hydroxy-2-oxo-2H-thiochromene-3-carbonyl]-amino}-acetic acid]: 96.4%.
`O=C(O)CNC(=O)c1c(O)c2ccc(-c3cccc(F)c3)cc2sc1=O` [Example 30, {[7-(3-Fluoro-phenyl)-4-hydroxy-2-oxo-2H-thiochromene-3-carbonyl]-amino}-acetic acid] yielded an inhibition at 67 µM of 99.1%.
`C[C@H](NC(=O)c1c(O)c2ccc(-c3cccc(F)c3)cc2sc1=O)C(=O)O` [Example 31, 2-(S)-{[7-(3-Fluoro-phenyl)-4-hydroxy-2-oxo-2H-thiochromene-3-carbonyl]-amino}-propionic acid] showed an inhibition at 67 µM of 98.4%.
As for `O=C(O)CNC(=O)c1c(O)c2ccc(-c3ccccc3C(F)(F)F)cc2sc1=O` [Example 32, {[4-Hydroxy-2-oxo-7-(2-trifluoromethyl-phenyl)-2H-thiochromene-3-carbonyl]-amino}-acetic acid], the inhibition at 67 µM is 93.2%.
On the same count and under the same terms, next, `O=C(O)CNC(=O)c1c(O)c2cc(-c3cc(C(F)(F)F)cc(C(F)(F)F)c3)ccc2sc1=O` [Example 33, {[6-(3,5-Bis-trifluoromethyl-phenyl)-4-hydroxy-2-oxo-2H-thiochromene-3-carbonyl]-amino}-acetic acid]: 99.4%.
The same measure, in the same setting: next, `O=C(O)CNC(=O)c1c(O)c2cc(-c3ccccc3C(F)(F)F)ccc2sc1=O` [Example 34, {[4-Hydroxy-2-oxo-6-(2-trifluoromethyl-phenyl)-2H-thiochromene-3-carbonyl]-amino}-acetic acid]: 99.8%; `COc1ccc(-c2ccc3sc(=O)c(C(=O)NCC(=O)O)c(O)c3c2)cc1` [Example 35, {[4-Hydroxy-6-(4-methoxy-phenyl)-2-oxo-2H-thiochromene-3-carbonyl]-amino}-acetic acid]: 99.1%; `O=C(O)CNC(=O)c1c(O)c2cc(-c3ccccc3Cl)ccc2sc1=O` [Example 36, {[6-(2-Chloro-phenyl)-4-hydroxy-2-oxo-2H-thiochromene-3-carbonyl]-amino}-acetic acid]: 99.7%.
Same read-out and setting: the same measure for `O=C(O)CNC(=O)c1c(O)c2cc(-c3cccc(F)c3)ccc2sc1=O` [Example 37, {[6-(3-Fluoro-phenyl)-4-hydroxy-2-oxo-2H-thiochromene-3-carbonyl]-amino}-acetic acid]: 98.4%.

Staying with this assay, now noted: compound concentration 200 μM.
The compound `COc1cc2sc(=O)c(C(=O)NCC(=O)O)c(O)c2cc1OC` [Example 2, [(4-Hydroxy-6,7-dimethoxy-2-oxo-2H-thiochromene-3-carbonyl)-amino]-acetic acid] yielded an inhibition at 200 µM of 99.4%.
With `O=C(O)CNC(=O)c1c(O)c2ccccc2sc1=O` [Example 3, [(4-Hydroxy-2-oxo-2H-thiochromene-3-carbonyl)-amino]-acetic acid], the inhibition at 200 µM was determined as 99.2%.
Compound `O=C(O)CNC(=O)c1c(O)c2cc(F)ccc2sc1=O` [Example 4, [(6-Fluoro-4-hydroxy-2-oxo-2H-thiochromene-3-carbonyl)-amino]-acetic acid] gave an inhibition at 200 µM of 100%.

The values above are taken from US9149476B2, “Thiochromene derivatives as HIF hydroxylase inhibitors” (FibroGen, Inc., priority 2008, dated 2015).
